Consider 7 compounds from patent US11850305B2 (GLAXOSMITHKLINE BIOLOGICALS SA, priority 2010, dated 2023).

A short description of data set [1]: pKa measurement of lipid with TNS fluorescent probe. The format is physicochemical. The source says: This is done with all eight buffers.
The subject of another data set is BHK cells. Nature of the data set: BHK expression. The format is cell-based. Conditions: liposomes incubated with BHK cells overnight. How it is done:
Liposomes with different lipids were incubated with BHK cells overnight and assessed for protein expression potency. From a baseline with RV05 lipid expression could be increased 18× by adding 10% 1,2-diphytanoyl-sn-glycero-3-phosphoethanolamine (DPyPE) to the liposome, 10× by adding 10% 18:2 (cis) phosphatidylcholine, and 900× by instead using RV01.

The test system of the next data set is RSV F protein. In words: Total IgG titers against F protein after replicon delivery in liposomes with alternative cationic lipids. The format is in vivo. Conditions: cationic lipid of RV01 liposomes replaced; 2wp1 and 2wp2. The source says: These liposomes were also used to deliver a replicon encoding full-length RSV F protein. Total IgG titers against F protein two weeks after the first dose (2wp1) are plotted against pKa in FIG. 16. The best results are seen where the pKa is where the cationic lipid has a pKa between 5.7-5.9, but pKa alone is not enough to guarantee a high titer e.g. the lipid must still support liposome formation.
The cationic lipid in RV01 liposomes (DLinDMA) was replaced by RV16, RV17, RV18 or RV19.
On the technique in general: A replicon is a self-replicating genome or part of one, used to study replication in cells.

Where [2] appears, read: probe 6-(p-toluidino)-2-naphthalenesulfonic acid (TNS), lipid alone, TNS fluorescence method, read-out: pKa of cationic lipid.

Where two headings read alike, the source gives them in different places.

Broadly, the pKa is the negative logarithm of the acid dissociation constant. The compound `CCCCC/C=C\C/C=C\CCCCCCCCOCC(CN1CCC(C)(C)C1)OCCOCCO[C@H]1CC[C@@]2(C)C(=CC[C@H]3[C@@H]4CC[C@H]([C@H](C)CCCC(C)C)[C@@]4(C)CC[C@@H]32)C1` (some centres unmarked) [RV05] displayed a pKa in data set [1] of about 5.8. As to `CCCCCCCC/C=C\CCCCCCCC(=O)N[C@@H](CCNC(=N)N)C(=O)NCCCCCCCCCCCCCCCC` [RV02], the pKa in data set [1] (setting [2]) was over 9.

As for `CCCCC/C=C\C/C=C\CCCCCCCCOCC(CN(C)C)OCCCCCCCC/C=C\C/C=C\CCCCC` (centres unmarked) [RV01, 1,2-dilinoleyloxy-N,N-dimethyl-3-aminopropane, reference compound], the pKa in data set [1] (setting [2]) is about 5.8. Besides, in the data set on BHK cells, the “increase of protein expression from a baseline with RV05 lipid” value came to 900 ×.

`CCCCCCCC/C=C\CCCCCCCCNC(=O)C(CN(C)C)NC(=O)CCCCCCC/C=C\CCCCCCCC` (centres unmarked) [RV17]: the pKa in data set [1] (setting [2]) was found to be 6.1.

Turning to `CCCCCCCC/C=C\CCCCCCCCOCC(C[N+](C)(C)C)OCCCCCCCC/C=C\CCCCCCCC.[Cl-]` (centres unmarked) [RV19], in the data set with RSV F protein, the “Total IgG titers (FIG. 17)” value was “lowest results”. In the case of `CCCCC/C=C\C/C=C\CCCCCCCCNC(=O)C(CN(C)C)NC(=O)CCCCCCC/C=C\C/C=C\CCCCC` (centres unmarked), in data set [1] (setting [2]), the pKa turned out to be 6.1. For `CCCCC/C=C\C/C=C\CCCCCCCCOCC(CN1CCCC1C)OCCOCCOCCNC(=O)O[C@H]1CC[C@@]2(C)C(=CC[C@H]3[C@@H]4CC[C@H]([C@H](C)CCCC(C)C)[C@@]4(C)CC[C@@H]32)C1` (some centres unmarked) [RV12], the pKa in data set [1] was 7.
